These are literature values, as cited in patent US7713673B2, “Fixing liquid, toner fixing method, toner fixing device, image forming method, and image forming apparatus” (priority 2005, dated 2010).

For this data set the following is noted: acute oral toxicity; given in brackets as a material property of the component.

Regarding `CCCCCCCCCCCC(=O)OCC` [ethyl laurate], the LD50 (as a rule, the dose expected to kill half of the subjects tested) was 5000 mg/kg.

As to `CCO` [ethanol], the LD50 was 15000 mg/kg. As to `CC(O)CO` (stereo not shown) [propylene glycol], the LD50 is 15000 mg/kg. Turning to `CCOCCOC(=O)CCC(=O)OCCOCC` [diethoxyethyl succinate], the LD50 was 5000 mg/kg. For the compound `CCCCOC(=O)CCCCCCCCC(=O)OCCCC` [dibutyl sebacate], the median lethal dose (LD50) is 12800 mg/kg. As to `CC(C)COC(=O)CCCCC(=O)OCC(C)C` [diisobutyl adipate], the LD50 was 12800 mg/kg. With `CC(O)CCO` (stereo not shown) [1,3-butanediol], the LD50 was 10000 mg/kg.
